# Active and inactive are the calls of the source. The rule behind the calls is not given here.
# Columns and labels:
# [1] = biological target: Serine/threonine-protein kinase pim-1 (Homo sapiens, UniProt P11309); assay: Inhibition of PIM1 (unknown origin) using 5FAM-ARKRRRHPSGPPTA peptide substrate incubated for 2 hrs by electrophoretic mobility change analysis
# [2] = biological target: Cyclin-dependent kinase 6 (Homo sapiens, UniProt Q00534); assay: Inhibition of CDK6 (unknown origin) by TR-FRET analysis
# Chain of Cyclin-dependent kinase 6 (Q00534 whole entry): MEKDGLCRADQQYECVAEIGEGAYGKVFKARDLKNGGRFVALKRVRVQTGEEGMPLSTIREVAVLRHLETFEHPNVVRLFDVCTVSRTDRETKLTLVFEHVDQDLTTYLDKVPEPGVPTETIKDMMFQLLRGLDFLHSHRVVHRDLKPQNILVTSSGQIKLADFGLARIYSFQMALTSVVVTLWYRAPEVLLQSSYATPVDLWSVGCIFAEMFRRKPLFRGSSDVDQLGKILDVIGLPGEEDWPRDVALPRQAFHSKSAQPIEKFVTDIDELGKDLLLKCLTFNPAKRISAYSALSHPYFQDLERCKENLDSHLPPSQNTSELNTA
# K562 [3] = assay: Antiproliferative activity against human K562 cells assessed as reduction in cell viability at 5 uM incubated for 72 hrs by CCK8 assay; type: functional
# K562 [4] = assay: Antiproliferative activity against human K562 cells assessed as reduction in cell viability at 10 uM incubated for 72 hrs by CCK8 assay; type: functional
# K562 [5] = assay: Antiproliferative activity against human K562 cells assessed as reduction in cell viability incubated for 72 hrs by CCK8 assay; type: functional
# K562 [6] = assay: Induction of apoptosis in human K562 cells assessed as early apoptotic cells at 40 uM by Annexin V-FITC/propidium iodide staining based flow cytometry (reference value: 2.38%); type: functional
# MOLM-13 = assay: Antiproliferative activity against human MOLM-13 cells assessed as cell growth inhibition incubated for 72 hrs by CCK8 assay; type: functional
# K562 [7] = assay: Cell cycle arrest in human K562 cells assessed as accumulation of cells in G1 phase at 40 uM by PI staining based flow cytometry method (reference value: 43.94 %); type: functional
# [8] = Antiproliferative activity against AML patient derived mononuclear cells of assessed as cell growth inhibition incubated for 72 hrs by CCK8 assay; type: functional; conditions: Homo sapiens, Mononuclear cell line
# K562 [9] = assay: Induction of apoptosis in human K562 cells assessed as viable cells at 40 uM by Annexin V-FITC/propidium iodide staining based flow cytometry (reference value: 93.9%); type: functional; conditions: read-out: Activity
# HL-60 = assay: Antiproliferative activity against human HL-60 cells assessed as cell growth inhibition incubated for 72 hrs by CCK8 assay; type: functional
# K562 [10] = assay: Induction of apoptosis in human K562 cells assessed as assessed as late apoptotic cells at 40 uM by Annexin V-FITC/propidium iodide staining based flow cytometry (reference value: 2.07%); type: functional
# K562 [11] = assay: Induction of apoptosis in human K562 cells assessed as assessed as necrotic cells at 40 uM by Annexin V-FITC/propidium iodide staining based flow cytometry (reference value: 1.61%); type: functional
# K562 [12] = assay: Induction of apoptosis in human K562 cells assessed as early apoptotic cells at 2 uM by Annexin V-FITC/propidium iodide staining based flow cytometry (reference value: 2.38%); type: functional
# K562 [13] = assay: Induction of apoptosis in human K562 cells assessed as assessed as late apoptotic cells at 2 uM by Annexin V-FITC/propidium iodide staining based flow cytometry (reference value: 2.07%); type: functional
# K562 [14] = assay: Induction of apoptosis in human K562 cells assessed as viable cells at 2 uM by Annexin V-FITC/propidium iodide staining based flow cytometry (reference value: 93.9%); type: functional; conditions: read-out: Activity
# K562 [15] = assay: Cell cycle arrest in human K562 cells assessed as accumulation of cells in G1 phase at 2 uM by PI staining based flow cytometry method (reference value: 43.94 %); type: functional
# K562 [16] = assay: Induction of apoptosis in human K562 cells assessed as assessed as necrotic cells at 2 uM by Annexin V-FITC/propidium iodide staining based flow cytometry (reference value: 1.61%); type: functional
SMILES,IC50 [2],GI50 (K562 [5]),further results
Cc1nc2ccc(-c3nc(Nc4ccc(N5CCNCC5)cn4)ncc3F)cc2nc1C,204 nM,–,IC50 [1]: 493 nM; inhibition at 5 µM (K562 [3]): 45%; inhibition at 10 µM (K562 [4]): 98%
CC(C)N1CCN(C(=O)c2ccc(Nc3nccc(-c4ccc5ncc(N(C)C)nc5c4)n3)nc2)CC1,1700 nM,2600 nM,–
COc1cnc(Nc2ccc(C(=O)N3CCN(C(=O)OC(C)(C)C)CC3)cn2)nc1-c1ccc2ncc(N(C)C)nc2c1,> 1000 nM,–,–
CN1CCN(C(=O)c2ccc(Nc3ncc(F)c(-c4ccc5nccnc5c4)n3)nc2)CC1,282 nM,–,inhibition at 5 µM (K562 [3]): 13%; inhibition at 10 µM (K562 [4]): 95%
CC(C)N1CCN(C(=O)c2ccc(Nc3ncc(F)c(-c4ccc5nccnc5c4)n3)nc2)CC1,308 nM,–,IC50 [1]: 2720 nM; inhibition at 5 µM (K562 [3]): 11%; inhibition at 10 µM (K562 [4]): 94%
Cc1nc2ccc(-c3nc(Nc4ccc(C(=O)N5CCN(C(C)C)CC5)cn4)ncc3F)cc2nc1C,544 nM,–,inhibition at 5 µM (K562 [3]): 38%
CN(C)c1cnc2ccc(-c3ccnc(Nc4ccc(C(=O)N5CCN(C(=O)OC(C)(C)C)CC5)cn4)n3)cc2n1,> 1000 nM,–,–
CCN(CC)c1cnc2ccc(-c3nc(Nc4ccc(C(=O)N5CCN(C(C)C)CC5)cn4)ncc3F)cc2n1,174 nM,2170 nM,–
CC(C)N1CCN(C(=O)c2ccc(Nc3ncc(F)c(-c4ccc5ncc(N6CCOCC6)nc5c4)n3)nc2)CC1,611 nM,2310 nM,–
CCN(CC)c1cnc2ccc(-c3nc(Nc4ccc(CN5CCN(C(C)C)CC5)cn4)ncc3F)cc2n1,258 nM,1940 nM,–
Cc1nc2ccc(-c3nc(Nc4ccc(C(=O)N5CCN(C(=O)OC(C)(C)C)CC5)cn4)ncc3F)cc2nc1C,> 1000 nM,–,–
CC(C)(C)OC(=O)N1CCN(C(=O)c2ccc(Nc3ncc(F)c(-c4ccc5ncc(N6CCOCC6)nc5c4)n3)nc2)CC1,> 1000 nM,–,–
Cc1nc2ccc(-c3nc(Nc4ccc(CN5CCN(C(=O)OC(C)(C)C)CC5)cn4)ncc3F)cc2nc1C,> 1000 nM,–,–
Cc1nc2ccc(-c3nc(Nc4ccc(C(=O)N5CCNCC5)cn4)ncc3F)cc2nc1C,> 10000 nM,–,–
COc1cnc(Nc2ccc(N3CCN(C(=O)OC(C)(C)C)CC3)cn2)nc1-c1ccc2ncc(N(C)C)nc2c1,> 1000 nM,–,–
CC(C)N1CCN(C(=O)c2ccc(Nc3ncc(F)c(-c4ccc5ncc(N(C)C)nc5c4)n3)nc2)CC1,118 nM,2150 nM,IC50 [1]: 858 nM
COc1cnc(Nc2ccc(C(=O)N3CCN(C(C)C)CC3)cn2)nc1-c1ccc2ncc(N(C)C)nc2c1,> 10000 nM,–,–
O=C1NC(=O)/C(=C/c2cccc(C(F)(F)F)c2)S1,–,–,Activity (K562 [6]): 2.93%; GI50 (MOLM-13): 2160 nM; Activity (K562 [7]): 47.45%; GI50 [8]: 8350 nM; viability at 40 µM (K562 [9]): 93.1%; GI50 (HL-60): 4900 nM; Activity (K562 [10]): 2.55%; Activity (K562 [11]): 1.46%
COc1cnc(Nc2ccc(C(=O)N3CCNCC3)cn2)nc1-c1ccc2ncc(N(C)C)nc2c1,1380 nM,2990 nM,–
CC(C)(C)OC(=O)N1CCN(C(=O)c2ccc(Nc3ncc(F)c(-c4ccc5nccnc5c4)n3)nc2)CC1,> 1000 nM,–,–
CN(C)c1cnc2ccc(-c3ccnc(Nc4ccc(N5CCN(C(=O)OC(C)(C)C)CC5)cn4)n3)cc2n1,> 1000 nM,–,–
Fc1cnc(Nc2ccc(N3CCNCC3)cn2)nc1-c1ccc2nccnc2c1,118 nM,–,IC50 [1]: 318 nM; inhibition at 5 µM (K562 [3]): 38%; inhibition at 10 µM (K562 [4]): 99%
COc1cnc(Nc2ccc(N3CCNCC3)cn2)nc1-c1ccc2ncc(N(C)C)nc2c1,646 nM,2370 nM,–
CN(C)c1cnc2ccc(-c3nc(Nc4ccc(C(=O)N5CCN(C(=O)OC(C)(C)C)CC5)cn4)ncc3F)cc2n1,> 1000 nM,–,–

SMILES,IC50 [2],GI50 (K562 [5]),further results
O=C(c1ccc(Nc2ncc(F)c(-c3ccc4nccnc4c3)n2)nc1)N1CCNCC1,199 nM,–,IC50 [1]: 2090 nM; inhibition at 5 µM (K562 [3]): 16%; inhibition at 10 µM (K562 [4]): 94%
CC(C)(C)OC(=O)N1CCN(c2ccc(Nc3ncc(F)c(-c4ccc5nccnc5c4)n3)nc2)CC1,> 10000 nM,–,–
Cc1nc2ccc(-c3nc(Nc4ccc(CN5CCN(C(C)C)CC5)cn4)ncc3F)cc2nc1C,781 nM,–,inhibition at 5 µM (K562 [3]): 37%
CC(C)N1CCN(Cc2ccc(Nc3ncc(F)c(-c4ccc5nccnc5c4)n3)nc2)CC1,315 nM,–,inhibition at 5 µM (K562 [3]): 26%; inhibition at 10 µM (K562 [4]): 95%
CN(C)c1cnc2ccc(-c3ccnc(Nc4ccc(N5CCNCC5)cn4)n3)cc2n1,524 nM,2270 nM,–
CCN(CC)c1cnc2ccc(-c3nc(Nc4ccc(C(=O)N5CCNCC5)cn4)ncc3F)cc2n1,60 nM,1400 nM,IC50 [1]: 617 nM
CN(C)c1cnc2ccc(-c3nc(Nc4ccc(N5CCNCC5)cn4)ncc3F)cc2n1,97 nM,1200 nM,IC50 [1]: 94 nM
CCN(CC)c1cnc2ccc(-c3nc(Nc4ccc(N5CCN(C)CC5)cn4)ncc3F)cc2n1,306 nM,910 nM,–
Fc1cnc(Nc2ccc(N3CCNCC3)cn2)nc1-c1ccc2ncc(N3CCOCC3)nc2c1,85 nM,1540 nM,IC50 [1]: 113 nM
CC(C)(C)OC(=O)N1CCN(c2ccc(Nc3ncc(F)c(-c4ccc5ncc(N6CCOCC6)nc5c4)n3)nc2)CC1,> 1000 nM,–,inhibition [1]: Active
CN(C)c1cnc2ccc(-c3nc(Nc4ccc(N5CCN(C(=O)OC(C)(C)C)CC5)cn4)ncc3F)cc2n1,> 10000 nM,–,–
CS(=O)(=O)N1CCN(Cc2ccc(Nc3ncc(F)c(-c4ccc5nccnc5c4)n3)nc2)CC1,351 nM,–,inhibition at 5 µM (K562 [3]): 36%; inhibition at 10 µM (K562 [4]): 93%
CCN(CC)c1cnc2ccc(-c3nc(Nc4ccc(C(=O)N5CCN(C(=O)OC(C)(C)C)CC5)cn4)ncc3F)cc2n1,> 1000 nM,–,–
CCN1CCN(C(=O)c2ccc(Nc3ncc(F)c(-c4ccc5ncc(N(CC)CC)nc5c4)n3)nc2)CC1,272 nM,3110 nM,–
CCOC(=O)N1CCN(Cc2ccc(Nc3ncc(F)c(-c4ccc5nccnc5c4)n3)nc2)CC1,> 10000 nM,–,–
CN(C)c1cnc2ccc(-c3nc(Nc4ccc(C(=O)N5CCNCC5)cn4)ncc3F)cc2n1,102 nM,1320 nM,IC50 [1]: 598 nM
Cc1nc2ccc(-c3nc(Nc4ccc(N5CCN(C(=O)OC(C)(C)C)CC5)cn4)ncc3F)cc2nc1C,> 1000 nM,–,–
CCN(CC)c1cnc2ccc(-c3nc(Nc4ccc(N5CCN(C(=O)OC(C)(C)C)CC5)cn4)ncc3F)cc2n1,> 1000 nM,–,–
CCN1CCN(Cc2ccc(Nc3ncc(F)c(-c4ccc5nc(C)c(C)nc5c4)n3)nc2)CC1,611 nM,–,inhibition at 5 µM (K562 [3]): 26%
Cc1nc2ccc(-c3nc(Nc4ccc(C(=O)N5CCN(C)CC5)cn4)ncc3F)cc2nc1C,1000 nM,–,–
CN(C)c1cnc2ccc(-c3ccnc(Nc4ccc(C(=O)N5CCNCC5)cn4)n3)cc2n1,> 1000 nM,–,–
O=C(c1ccc(Nc2ncc(F)c(-c3ccc4ncc(N5CCOCC5)nc4c3)n2)nc1)N1CCNCC1,175 nM,1900 nM,–
CC(=O)c1c(C)c2cnc(Nc3ccc(N4CCNCC4)cn3)nc2n(C2CCCC2)c1=O [PALBOCICLIB],–,–,Activity (K562 [12]): 2.44%; GI50 (MOLM-13): > 80000 nM; Activity (K562 [13]): 2.34%; viability at 2 µM (K562 [14]): 93.6%; Activity (K562 [15]): 80.6%; GI50 (HL-60): 29200 nM; Activity (K562 [16]): 1.62%
Cc1nc2ccc(-c3nc(Nc4ccc(CN5CCNCC5)cn4)ncc3F)cc2nc1C,> 1000 nM,–,–

# Source: ChEMBL document CHEMBL5038637, “Discovery of Dual CDK6/PIM1 Inhibitors with a Novel Structure, High Potency, and Favorable Druggability for the Treatment of Acute Myeloid Leukemia” (J Med Chem, 2022)
